Reference: patent US9273057B2 (Bristol-Myers Squibb Company, priority 2012, dated 2016)
pIC50: −log10 of the molar value.

target: CK2A1 (CK2α/β) (Homo sapiens, UniProt P68400); experiment: CK2 kinase assay, CK2A1 (CK2α/β); format: biochemical; details: Table A; read-out: CK2A1 (CK2α/β) (IC50)
Sequence (P68400 whole entry, species assumed): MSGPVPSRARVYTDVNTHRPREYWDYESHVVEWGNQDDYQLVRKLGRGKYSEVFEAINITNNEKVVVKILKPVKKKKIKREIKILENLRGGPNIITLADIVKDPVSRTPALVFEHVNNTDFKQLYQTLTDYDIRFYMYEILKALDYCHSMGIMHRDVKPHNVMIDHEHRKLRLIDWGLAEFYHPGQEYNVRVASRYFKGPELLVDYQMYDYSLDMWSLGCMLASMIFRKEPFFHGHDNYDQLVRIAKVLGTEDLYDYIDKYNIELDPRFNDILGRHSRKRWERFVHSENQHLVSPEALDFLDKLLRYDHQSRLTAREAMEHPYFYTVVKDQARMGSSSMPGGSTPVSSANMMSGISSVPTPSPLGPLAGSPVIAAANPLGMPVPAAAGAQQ
Sequence (P67870 whole entry partner, species assumed): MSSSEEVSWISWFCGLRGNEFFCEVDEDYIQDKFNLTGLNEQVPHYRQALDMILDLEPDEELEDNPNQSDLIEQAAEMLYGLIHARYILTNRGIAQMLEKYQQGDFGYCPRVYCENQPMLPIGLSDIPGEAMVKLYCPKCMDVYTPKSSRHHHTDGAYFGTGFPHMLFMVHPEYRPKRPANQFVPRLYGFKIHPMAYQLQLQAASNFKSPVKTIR

Row | SMILES | pIC50
1 | COC(=O)N[C@H]1CN(C2CN(c3cc(C#N)cc(Nc4nc(NC5CC5)c5ncc(C#N)n5n4)c3Cl)C2)C[C@@H]1OC (racemic) [Example 297, (+/−) methyl ((3S,4S)-1-(1-(2-chloro-5-cyano-3-((7-cyano-4-(cyclopropylamino)imidazo[2,1-f][1,2,4]triazin-2-yl)amino)phenyl)-3-azetidinyl)-4-methoxy-3-pyrrolidinyl)carbamate] | 8.52
2 | N#Cc1cc(Nc2nc(NC3CC3)c3ncc(C#N)n3n2)c(Cl)c(N2CCN(C(=O)CC3CC3)CC2)c1 [Example 86] | 9.14
3 | N#Cc1cc(Nc2nc(NC3CC3)c3ncc(C#N)n3n2)c(Cl)c([C@H]2CCC[C@@H](N3CC(F)C3)C2)c1 (single isomer, unassigned) [Example 729] | 8.77
4 | N#Cc1cc(Nc2nc(NC3CC3)c3ncc(C#N)n3n2)c(Cl)c(C2CCCC(N3CCOCC3)C2)c1 (racemic) [Example 725, (+/−) cis and trans-2-((2-chloro-5-cyano-3-(3-morpholinocyclohexyl)phenyl)amino)-4-(cyclopropylamino)imidazo[2,1-f][1,2,4]triazine-7-carbonitrile] | 8.86
5 | N#Cc1cc(Nc2nc(NC3CC3)c3ncc(C#N)n3n2)c(Cl)c(C2(F)CNC2)c1 [Example 659, 2-((2-chloro-5-cyano-3-(3-fluoroazetidin-3-yl)phenyl)amino)-4-(cyclopropylamino)imidazo[2,1-f][1,2,4]triazine-7-carbonitrile] | 9.40
6 | CC(C)(CO)NCc1cc(C#N)cc(Nc2nc(NC3CC3)c3ncc(C#N)n3n2)c1Cl [Example 674, 2-((2-chloro-5-cyano-3-(((1-hydroxy-2-methylpropan-2-yl)amino)methyl)phenyl)amino)-4-(cyclopropylamino)imidazo[2,1-f][1,2,4]triazine-7-carbonitrile] | 8.76
7 | CN(CCO)CC(=O)Nc1cc(C#N)cc(Nc2nc(NC3CC3)c3ncc(C#N)n3n2)c1Cl [Example 619, N-(2-chloro-5-cyano-3-((7-cyano-4-(cyclopropylamino)imidazo[2,1-f][1,2,4]triazin-2-yl)amino)phenyl)-2-((2-hydroxyethyl)(methyl)amino)acetamide] | 8.78
8 | COC(=O)N1CC(N2CCC(c3cc(C#N)cc(Nc4nc(NC5CC5)c5ncc(C#N)n5n4)c3Cl)CC2)C1 [Example 320, methyl 3-(4-(2-chloro-5-cyano-3-((7-cyano-4-(cyclopropylamino)imidazo[2,1-f][1,2,4]triazin-2-yl)amino)phenyl)piperidin-1-yl)azetidine-1-carboxy] | 9.46
9 | CN1CCC(N2CC(O)(c3cc(C#N)cc(Nc4nc(NC5CC5)c5ncc(C#N)n5n4)c3Cl)C2)CC1 [Example 647, 2-((2-chloro-5-cyano-3-(3-hydroxy-1-(1-methylpiperidin-4-yl)azetidin-3-yl)phenyl)amino)-4-(cyclopropylamino)imidazo[2,1-f][1,2,4]triazine-7-carbonitrile] | 8.71
10 | CCNc1nc(Nc2cc(C#N)cc(N3CCC(NC(=O)OC)CC3)c2Cl)nn2c(C#N)cnc12 [Example 330, methyl (1-(2-chloro-5-cyano-3-((7-cyano-4-(ethylamino)imidazo[2,1-f][1,2,4]triazin-2-yl)amino)phenyl)piperidin-4-yl)carbamate] | 9.26
11 | C[C@H](N)C(=O)N1CCC(c2cc(C#N)cc(Nc3nc(NC4CC4)c4ncc(C#N)n4n3)c2Cl)CC1 [Example 240, 2-((3-(1-L-alanyl-4-piperidinyl)-2-chloro-5-cyanophenyl)amino)-4-(cyclopropylamino)imidazo[2,1-f][1,2,4]triazine-7-carbonitrile] | 9.33
12 | Cc1nn(CCN(C)C)c(C)c1-c1cc(C#N)cc(Nc2nc(NC3CC3)c3ncc(C#N)n3n2)c1Cl [Example 719, 2-[(2-chloro-5-cyano-3-{1-[2-(dimethylamino)ethyl]-3,5-dimethyl-1H-pyrazol-4-yl}phenyl)amino]-4-(cyclopropylamino)imidazo [2,1-f][1,2,4]triazine-7-carbonitrile] | 8.13
13 | CCNc1nc(-n2cc([C@@H]3C[C@H]3CN(C)C)c3ccc(C#N)cc32)nn2c(C#N)cnc12 (single isomer, unassigned) [Example 775] | 8.63
14 | N#Cc1cc(CN2CCOCC2)c(Cl)c(Nc2nc(NC3CC3)c3ncc(C#N)n3n2)c1 [Example 404, 2-((2-chloro-5-cyano-3-(morpholinomethyl)phenyl)amino)-4-(cyclopropylamino)imidazo[2,1-f][1,2,4]triazine-7-carbonitrile] | 9.27
15 | CC(O)CN1CCC2CN(c3cc(C#N)cc(Nc4nc(NC5CC5)c5ncc(C#N)n5n4)c3Cl)CCC21 (racemic) [Example 447, (+/−)-2-((2-chloro-5-cyano-3-(1-(2-hydroxypropyl)hexahydro-1H-pyrrolo[3,2-c]pyridin-5(6H)-yl)phenyl)amino)-4-(cyclopropylamino)imidazo[2,1-f][1,2,4]triazine-7-carbonitrile] | 9.05
16 | COC(=O)N[C@H]1CCN(c2cc(C#N)cc(Nc3nc(NC4CC4)c4ncc(C#N)n4n3)c2Cl)C[C@@H]1OC(=O)/C=C/C(=O)O [Example 198, (2E)-4-(((3S,4S)-1-(2-chloro-5-cyano-3-((7-cyano-4-(cyclopropylamino)imidazo[2,1-f][1,2,4]triazin-2-yl)amino)phenyl)-4-((methoxycarbonyl)amino)-3-piperidinyl)oxy)-4-oxo-2-butenoic acid] | 9.19
17 | COCCN1CC(N2CCN(c3cc(C#N)cc(Nc4nc(NC5CC5)c5ncc(C#N)n5n4)c3Cl)CC2)C1 [Example 61, 2-((2-chloro-5-cyano-3-(4-(1-(2-methoxyethyl)-3-azetidinyl)-1-piperazinyl)phenyl)amino)-4-(cyclopropylamino) imidazo[2,1-f][1,2,4] triazine-7-carbonitrile] | 9.02
18 | COC(=O)N[C@H]1CCN(c2cc(C#N)cc(Nc3nc(NC4CC4)c4ncc(C#N)n4n3)c2Cl)CC1NC(C)C (stereo in doubt) [Example 752, methyl N-[(3R,4S)-1-(2-chloro-5-cyano-3-{[7-cyano-4-(cyclopropylamino)imidazo [2,1-f][1,2,4]triazin-2-yl]amino}phenyl)-3-[(propan-2-yl)amino]piperidin-4-yl]carbamate] | 8.31
19 | CN1CCN(C2CN(c3cc(C#N)cc(Nc4nc(NC5CC5)c5ncc(C#N)n5n4)c3Cl)C2)CC1 [Example 151, 2-((2-chloro-5-cyano-3-(3-(4-methylpiperazin-1-yl)azetidin-1-yl)phenyl)amino)-4-(cyclopropylamino)imidazo[2,1-f][1,2,4]triazine-7-carbonitrile] | 9.23
20 | CCNc1nc(Nc2cc(C#N)cc(C3CCN(C[C@H](C)O)CC3)c2Cl)nn2c(C#N)cnc12 [Example 214, 2-((2-chloro-5-cyano-3-(1-((2S)-2-hydroxypropyl)-4-piperidinyl)phenyl)amino)-4-(ethylamino)imidazo[2,1-f][1,2,4]triazine-7-carbonitrile] | 8.34
21 | N#Cc1cc(Nc2nc(NC3CC3)c3ncc(C#N)n3n2)c(Cl)c(N2CC[C@@H]3[C@@H](CCN3[C@H]3CS(=O)(=O)C[C@@H]3O)C2)c1 [Example 452, 2-((2-chloro-5-cyano-3-(1-((3R,4R)-4-hydroxy-1,1-dioxidotetrahydrothiophen-3-yl)hexahydro-1H-pyrrolo[3,2-c]pyridin-5(6H)-yl)phenyl)amino)-4-(cyclopropylamino)imidazo[2,1-f][1,2,4]triazine-7-carbonitrile] | 9.09
